Patent publication EP4790048A1, “S1PR4 REGULATOR COMPOUND FOR AUTOIMMUNE DISEASE TREATMENT AND APPLICATION THEREOF” (Shengyuan Zetong (Shanghai) Pharmaceutical Co., Ltd, priority 2023, dated 2025)

Assays:
BALB/c mice [1] = assay: DSS-induced chronic ulcerative colitis in mice (Example 6); assay type: in vivo
Description: BALB/c mice were acclimatized for 7 days before the experiment. From Day 7 to Day 50 of the experiment, the mice were weighed daily and their blood and stool conditions were observed, scored and recorded according to the following table (Table 1). After random grouping, all groups except the Control group were given free access to 2-3% DSS solution for modeling from Day 7 to Day 14, while the Control group received normal drinking water during the same period. One cycle lasted 14 days and was repeated 3 times. Re-grouping was performed at the start of the final cycle to initiate drug administration. The Control group and Model group received no drug but the same solvent. The other groups were intragastrically administered 1 mg/kg, 3 mg/kg, 9 mg/kg, and SASP 500 mg/kg respectively. On Day 45, blood and colon samples were collected, colon length was measured, and a 1-2 cm colon segment was fixed with formaldehyde.
(§1) • BALB/c mice, male, 20-22 g • Dextran sulfate sodium MW: 36,000-50,000 (DSS) • 30 1 mg/kg, 3 mg/kg, 9 mg/kg, SASP (500 mg/kg) indicators were observed.
(§2) (1) Clinical Symptom Score: The mice were weighed daily and their blood and stool were observed during the experiment for DAI scoring, which was graded and recorded according to the following table (Table 1).
(§3) (2) After the experiment, the colon was removed, its length measured and weight recorded. The colon-to-body weight index (colon weight/body weight × 100%) and colon swelling rate (colon weight/length × 100%) were calculated.
(§4) Colonic tissue approximately 1 cm from the anal margin (0.5 cm) and ileocecal region tissue were collected for histopathological examination. After H&E staining, the tissues were scored under single-blind conditions to evaluate the level of distal colon inflammation and tissue damage; scoring was performed according to the Ameho criteria and calculated as follows: • Score 0: No abnormal findings in the texture. • Score 1: Mild inflammatory infiltration of the mucosa and/or submucosa (mixed with neutrophils), submucosal edema, punctate mucosal erosion, accompanied by capillary proliferation. The muscularis mucosae is intact. • Score 2: Changes of Score 1 account for more than 50%. • Score 3: Obvious inflammatory infiltration and edema (neutrophils are often predominant); ulcers usually penetrate the muscularis mucosae to reach the submucosa. There is little inflammatory cell infiltration in the muscularis propria and no muscle necrosis. • Score 4: Changes of Score 3 account for more than 50%. • Score 5: Large confluent ulcers with coagulative necrosis, massive neutrophil infiltration at the margins and few monocytes. Necrotic tissue penetrates the muscularis propria. • Score 6: Changes of Score 5 account for more than 50% of the specimen.
(§5) The fence function of Occludin separates the apical and basolateral sides of the epithelial cell plasma membrane, restricting the free flow of lipids on the cell membrane, facilitating the formation of cell polarity, maintaining the impermeability and rigidity of the intestinal mucosa, and preventing the entry of pathogenic microorganisms. The barrier function of Occludin can regulate the transport of small molecules and maintain tissue homeostasis. The expression and distribution of related proteins are detected by immunohistochemistry.
During modeling, the body weight of mice in the control group increased steadily. In the model group, during the first modeling period, mice were given 3% DSS drinking water ad libitum for 7 days, followed by tap water ad libitum for 7 days. On Day 4 of modeling, the body weight of mice began to decrease generally, reaching the lowest point on Day 8, and then started to rise. During the second modeling period, mice were given 2% DSS drinking water ad libitum for 7 days, followed by tap water ad libitum for 7 days. […]

BALB/c mice [2] = assay: DSS-induced acute ulcerative colitis in mice (Example 6); assay type: in vivo; settings: for survival rate: 8 mice, model group 75%
Experimental: From Day 0 to Day 14 of the experiment, the mice were weighed daily and their blood and stool conditions were observed, scored and recorded according to the following table (Table 1). Random grouping was performed on Day 1, and modeling was conducted from Day 1 to Day 7. All groups except the Control group were given 3.5% DSS water daily. Re-grouping was performed on Day 8. The Control group and Model group received no medication and were given tap water; the other groups were administered intragastrically with 1 mg/kg, 3 mg/kg, 9 mg/kg, and SASP (Sulfasalazine or Salicylazosulfapyridine) 500 mg/kg, respectively. On Day 15, blood and colon samples were collected, colon length was measured, and a 1-2 cm segment of the colon was fixed with formaldehyde.
as §1, §2, §3, §4
as §5, with “The expression and distribution of related proteins are detected by immunohistochemistry.” left out

## CCc1cc(/C(C)=N/OCc2ccc(-c3ccccc3)c(C)c2)ccc1CN1CC[C@H](C(=O)O)C1 [Compound 30]
BALB/c mice [1]; 30 1 mg/kg
  body weight during administration: remained relatively stable during administration
BALB/c mice [1]; 30 3 mg/kg
  body weight during administration: remained relatively stable during administration
BALB/c mice [1]; 30 3 mg/kg, before and after administration, vs model group
  body weight change rate: significantly increased
BALB/c mice [1]; 30 3 mg/kg, vs model group
  total DAI scores of the administration for 14 days: significantly lower
BALB/c mice [1]; 30 at 1 mg/kg
  colon pathological changes (H&E staining): no obvious inflammatory cell infiltration was observed
BALB/c mice [1]; 30 at 3 mg/kg
  colon pathological changes (H&E staining): no obvious inflammatory cell infiltration was observed
BALB/c mice [1]; 30 treatment group, SASP 500 mg/kg, vs model group
  daily DAI score: decreased more rapidly
BALB/c mice [1]; 30 treatment groups (1, 3, 9 mg/kg), SASP 500 mg/kg, vs model group
  body weight recovery: recovered rapidly and increased substantially
BALB/c mice [1]; Compound 30 3 mg/kg, vs Model group
  colon length: significantly inhibited DSS-induced colon shortening
BALB/c mice [1]; Compound 30 9 mg/kg, vs Model group
  colon length: significantly inhibited DSS-induced colon shortening
BALB/c mice [1]; vs Model group
  Occludin expression in colonic mucosa (immunohistochemistry): the expression of Occludin was increased
BALB/c mice [2]; 30 1 mg/kg intragastric from Day 8
  survival rate: 87.5%
BALB/c mice [2]; 30 1 mg/kg, p<0.05 vs Model group
  colon length: significantly inhibited DSS-induced colon shortening
BALB/c mice [2]; 30 3 mg/kg intragastric from Day 8
  survival rate: 87.5%
BALB/c mice [2]; 30 3 mg/kg, p<0.01 vs Model group
  colon length: significantly inhibited DSS-induced colon shortening
BALB/c mice [2]; 30 3 mg/kg, vs model group
  total DAI scores over 14 days: significantly lower
BALB/c mice [2]; 30 9 mg/kg intragastric from Day 8
  survival rate: 75%
BALB/c mice [2]; 30 at 3 mg/kg, SASP at 500 mg/kg, vs model group
  body weight recovery: faster body weight recovery with a greater rebound amplitude
BALB/c mice [2]; 30 at 9 mg/kg
  colon pathological changes (H&E staining): obvious inflammatory cell infiltration and reduced goblet cells
BALB/c mice [2]; 30 treatment groups, SASP 500 mg/kg, vs model group
  daily DAI score: decreased more rapidly
BALB/c mice [2]; Compound 30 1 mg/kg
  colon pathological changes (H&E staining): no obvious inflammatory cell infiltration was observed
BALB/c mice [2]; Compound 30 3 mg/kg
  colon pathological changes (H&E staining): no obvious inflammatory cell infiltration was observed
BALB/c mice [2]; vs Model group
  Occludin expression in colonic mucosa (immunohistochemistry): the expression of Occludin was increased
  Occludin protein in colon (Western blotting): increase the expression of Occludin
